Reference: the NIST ThermoML archive (doi:10.1016/j.jct.2015.01.006)
Numbers after ± are expanded uncertainties.

Experiment: mn = molality of the nth substance listed, in mol/kg
Details: 298.15 K, 100 kPa, Liquid, Vibrating tube method

[O]=[Re](=[O])(=[O])[OH] [perrhenic acid] + O
Details | mass density [kg/m3]
m1 = 0.15 | 1027.57 ± 4.1
m1 = 0.31 | 1057.54 ± 4.2
m1 = 0.46 | 1087.27 ± 4.4
m1 = 0.6 | 1115.28 ± 4.5
m1 = 0.75 | 1143.92 ± 4.6
m1 = 0.89 | 1169.78 ± 4.7
m1 = 1.03 | 1195.77 ± 4.8
m1 = 1.17 | 1220.36 ± 4.9
m1 = 1.31 | 1245.59 ± 5
m1 = 1.45 | 1270.29 ± 5.1
m1 = 1.58 | 1292.96 ± 5.2
m1 = 1.71 | 1316 ± 5.3
m1 = 1.93 | 1361.24 ± 5.5
m1 = 2.38 | 1429.34 ± 5.8
m1 = 3.33 | 1584.96 ± 6.5
m1 = 3.78 | 1649.71 ± 6.8
m1 = 4.08 | 1693.28 ± 6.9
m1 = 4.29 | 1716.22 ± 7
m1 = 4.63 | 1782.41 ± 7.3
m1 = 4.72 | 1791.73 ± 7.4
m1 = 4.96 | 1821.44 ± 7.5
m1 = 5.23 | 1856.73 ± 7.7
m1 = 5.45 | 1877.16 ± 7.8
m1 = 5.66 | 1910.98 ± 8
m1 = 5.92 | 1933.4 ± 8.1
m1 = 6.06 | 1957.44 ± 8.2
m1 = 6.26 | 1978.54 ± 8.3
m1 = 6.5 | 2025.89 ± 8.5
m1 = 6.8 | 2054.75 ± 8.7
m1 = 7.05 | 2069.04 ± 8.7
m1 = 7.13 | 2085.82 ± 8.8
m1 = 7.42 | 2107.74 ± 8.9
m1 = 7.44 | 2117.26 ± 9
m1 = 7.65 | 2134.62 ± 9.1
m1 = 7.86 | 2153.7 ± 9.2
m1 = 7.95 | 2166.62 ± 9.3
m1 = 8.2 | 2192.45 ± 9.4
m1 = 11.82 | 2516.75 ± 11
